# System: Ba/F3 cells expressing EGFR Del19/C797S (EGFR DC)
# Experiment: Proliferation inhibitory activity, Ba/F3 cells expressing EGFR Del19/C797S (CellTiter-Glo)
# Assay type: cell-based
# Details: Mus musculus, BaF3, 72 hours of compound treatment
# Procedure, shortened: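 Viability after 72 h of compound exposure was measured by luminescence (CellTiter-Glo) in Ba/F3 lines transduced with mutant EGFR. Final concentrations spanned 0.2 nM–5 μM over 12 threefold steps. Growth relative to untreated control gave GI50 values; each test was run three times.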
row,Compound,GI50
1,"CCN1C[C@H]2C[C@@H]1CN2C1CCN(c2ccc(Nc3cc(N4OCC[C@@H]4c4ccccc4)ncn3)c(OC)c2)CC1 [Example 116, N-(4-(4-((1R,4R)-5-ethyl-2,5-diazabicyclo[2.2.1]heptan-2-yl)piperidin-1-yl)-2-methoxyphenyl)-6-((R)-3-phenylisoxazolidin-2-yl)pyrimidin-4-amine]",< 50 nM
2,"CCc1cc(Nc2cc(N3OCC[C@@H]3c3ccccc3)ncn2)ccc1N1CCC(N2CCN(C)CC2)CC1 [Example 117, (R)—N-(3-ethyl-4-(4-(4-methylpiperazin-1-yl)piperidin-1-yl)phenyl)-6-(3-phenylisoxazolidin-2-yl)pyrimidin-4-amine]",< 50 nM
3,"CCN1CCN(C2CCN(c3ccc(Nc4cc(N5OCC[C@@H]5c5ccccc5)ncn4)c(OC)c3)CC2)CC1 [Example 118, (R)—N-(4-(4-(4-ethylpiperazin-1-yl)piperidin-1-yl)-2-methoxyphenyl)-6-(3-phenylisoxazolidin-2-yl)pyrimidin-4-amine]",< 50 nM
4,"COc1cc(N2CCC(N(C)C)CC2)ccc1Nc1cc(N2OCC[C@@H]2c2ccccc2)ncn1 [Example 119, (R)—N-(4-(4-(dimethylamino)piperidin-1-yl)-2-methoxyphenyl)-6-(3-phenylisoxazolidin-2-yl)pyrimidin-4-amine]",< 50 nM
5,"COc1cc(N2CCC(N3CCOCC3)CC2)ccc1Nc1cc(N2OCC[C@@H]2c2ccccc2)ncn1 [Example 120, (R)—N-(2-methoxy-4-(4-morpholinopiperidin-1-yl)phenyl)-6-(3-phenylisoxazolidin-2-yl)pyrimidin-4-amine]",< 50 nM
6,"COc1cc(Nc2cc(N3OCC[C@@H]3c3ccccc3)ncn2)ccc1N1CCC(N2CCN(CCO)CC2)CC1 [Example 121, (R)-2-(4-(1-(2-methoxy-4-((6-(3-phenylisoxazolidin-2-yl)pyrimidin-4-yl)amino)phenyl)piperidin-4-yl)piperazin-1-yl)ethan-1-ol]",< 50 nM
7,"CC(=O)N1CCN(c2ccc(Nc3cc(N4OCC[C@@H]4c4ccccc4)ncn3)cc2)CC1 [Example 122, (R)-1-(4-(4-((6-(3-phenylisoxazolidin-2-yl)pyrimidin-4-yl)amino)phenyl)piperazin-1-yl)ethan-1-one]",< 50 nM
8,"CN1CCN(C2CCN(c3c(F)cc(Nc4cc(N5OCC[C@@H]5c5ccccc5)ncn4)cc3F)CC2)CC1 [Example 123, (R)—N-(3,5-difluoro-4-(4-(4-methylpiperazin-1-yl)piperidin-1-yl)phenyl)-6-(3-phenylisoxazolidin-2-yl)pyrimidin-4-amine]",< 50 nM
9,"c1ccc([C@H]2CCON2c2cc(Nc3ccc(N4CCN(C5COC5)CC4)cc3)ncn2)cc1 [Example 124, (R)—N-(4-(4-(oxetan-3-yl)piperazin-1-yl)phenyl)-6-(3-phenylisoxazolidin-2-yl)pyrimidin-4-amine]",< 50 nM
10,"COc1cc(Nc2cc(N3OCC[C@@H]3c3cccc(Cl)c3F)ncn2)ccc1N1CCC(N2CCN(C)CC2)CC1 [Example 125, (R)-6-(3-(3-chloro-2-fluorophenyl)isoxazolidin-2-yl)-N-(3-methoxy-4-(4-(4-methylpiperazin-1-yl)piperidin-1-yl)phenyl)pyrimidin-4-amine]",< 50 nM
11,"Cc1cc(Nc2cc(N3OCC[C@@H]3c3cccc(F)c3F)ncn2)ccc1N1CCC(N2CCN(C)CC2)CC1 [Example 126, (R)-6-(3-(2,3-difluorophenyl)isoxazolidin-2-yl)-N-(3-methyl-4-(4-(4-methylpiperazin-1-yl)piperidin-1-yl)phenyl)pyrimidin-4-amine]",< 50 nM
12,"CN(C)C1CCN(c2ccc(Nc3cc(N4OCC[C@@H]4c4ccccc4)ncn3)cc2)CC1 [Example 127, (R)—N-(4-(4-(dimethylamino)piperidin-1-yl)phenyl)-6-(3-phenylisoxazolidin-2-yl)pyrimidin-4-amine]",< 50 nM
13,"COc1cc(N2CCC(N3CCN(C)CC3)CC2)ccc1Nc1cc(N2OCC[C@@H]2c2ccc(F)c(Cl)c2F)ncn1 [Example 130, (R)-6-(3-(3-chloro-2,4-difluorophenyl)isoxazolidin-2-yl)-N-(2-methoxy-4-(4-(4-methylpiperazin-1-yl)piperidin-1-yl)phenyl)pyrimidin-4-amine]",50 to 500 nM
14,"COc1cc(N2CCC(N3CCN(C)CC3)CC2)ccc1Nc1cc(N2OCC[C@@H]2c2cccc(N(C)C)c2)ncn1 [Example 131, (R)-6-(3-(3-(dimethylamino)phenyl)isoxazolidin-2-yl)-N-(2-methoxy-4-(4-(4-methylpiperazin-1-yl)piperidin-1-yl)phenyl)pyrimidin-4-amine]",50 to 500 nM
15,"Cn1cc(Nc2cc(N3OCC[C@@H]3c3ccccc3)ncn2)cn1 [Example 133, (R)—N-(1-methyl-1H-pyrazol-4-yl)-6-(3-phenylisoxazolidin-2-yl)pyrimidin-4-amine]",50 to 500 nM
16,"CC(C)(C)OC(=O)N1CCc2ccc(Nc3cc(N4OCC[C@@H]4c4ccccc4)ncn3)cc2C1 [Example 134, tert-butyl (R)-7-((6-(3-phenylisoxazolidin-2-yl)pyrimidin-4-yl)amino)-3,4-dihydroisoquinoline-2 (1H)-carboxylate]",< 50 nM
17,"CN1CCC2(CC1)CCN(c1ccc(Nc3cc(N4OCC[C@@H]4c4ccccc4)ncn3)cc1)CC2 [Example 135, (R)—N-(4-(9-methyl-3,9-diazaspiro[5.5]undecan-3-yl)phenyl)-6-(3-phenylisoxazolidin-2-yl)pyrimidin-4-amine]",< 50 nM
18,"CN1C2CC1CN(c1ccc(Nc3cc(N4OCC[C@@H]4c4ccccc4)ncn3)cc1)C2 [Example 136, N-(4-(6-methyl-3,6-diazabicyclo[3.1.1]heptan-3-yl)phenyl)-6-((R)-3-phenylisoxazolidin-2-yl)pyrimidin-4-amine]",< 50 nM
19,"CN1CCN(c2ccc(Nc3cc(N4OCC[C@@H]4c4ccccc4)ncn3)cc2OCC(F)(F)F)CC1 [Example 139, (R)—N-(4-(4-methylpiperazin-1-yl)-3-(2,2,2-trifluoroethoxy)phenyl)-6-(3-phenylisoxazolidin-2-yl)pyrimidin-4-amine]",< 50 nM
20,"COc1cc(N2CCC(N3CCN(C)CC3)C(F)C2)ccc1Nc1cc(N2OCC[C@@H]2c2cccc(F)c2F)ncn1 (stereo partly drawn) [Example 140, 6-((R)-3-(2,3-difluorophenyl)isoxazolidin-2-yl)-N-(4-(3-fluoro-4-(4-methylpiperazin-1-yl)piperidin-1-yl)-2-methoxyphenyl)pyrimidin-4-amine]",< 50 nM
21,"COc1cc(C2CCN(C)CC2)ccc1Nc1cc(N2OCC[C@@H]2c2cccc(F)c2F)ncn1 [Example 141, (R)-6-(3-(2,3-difluorophenyl)isoxazolidin-2-yl)-N-(2-methoxy-4-(1-methylpiperidin-4-yl)phenyl)pyrimidin-4-amine]",< 50 nM
22,"COc1cc(N2CCC(N3CCN(C)CC3)CC2)c(C(C)C)cc1Nc1cc(N2OCC[C@@H]2c2cccc(F)c2F)ncn1 [Example 142, (R)-6-(3-(2,3-difluorophenyl)isoxazolidin-2-yl)-N-(5-isopropyl-2-methoxy-4-(4-(4-methylpiperazin-1-yl)piperidin-1-yl)phenyl)pyrimidin-4-amine]",< 50 nM
23,"COc1cc(N2CCC(N3CCN(C)CC3)CC2)c(C2CC2)cc1Nc1cc(N2OCC[C@@H]2c2ccccc2)ncn1 [Example 143, (R)—N-(5-cyclopropyl-2-methoxy-4-(4-(4-methylpiperazin-1-yl)piperidin-1-yl)phenyl)-6-(3-phenylisoxazolidin-2-yl)pyrimidin-4-amine]",< 50 nM
